Data as given in article PMC5209312, “Glycin-rich antimicrobial peptide YD1 from B. amyloliquefaciens, induced morphological alteration in and showed affinity for plasmid DNA of E. coli” (AMB Express, 2017).
Read-outs that look alike come from different tables or passages of the source. Ends that are not written are not given here.

Columns and labels:
MRSA B15 = type: cell-based, methicillin-resistant Staphylococcus aureus; details: method of Wiegand et al. 2008
Method: (§1) The minimal inhibitory concentration (MIC) was determined according to the method described by Weigand et al. ([2008]).

[1] = tested on: Staphylococcus aureus KCTC 1928; experiment: MIC determination; type: cell-based; details: method of Wiegand et al. 2008
Method: as §1

VRE 5 = type: cell-based, vancomycin-resistant enterococci
Method: as §1

VRE 2 = type: cell-based, vancomycin-resistant enterococci
Method: as §1

[2] = tested on: Alcaligenes faecalis ATCC 1004; type: cell-based
Method: as §1

VRSA = type: cell-based
Method: as §1

[3] = tested on: Salmonella Typhimurium KCTC 1925; type: cell-based
Method: as §1

[4] = tested on: Bacillus subtilis ATCC 6633; type: cell-based
Method: as §1

[5] = tested on: Pseudomonas aeruginosa KCTC 1637; type: cell-based
Method: as §1

[6] = tested on: Enterococcus faecalis ATCC 29212; type: cell-based
Method: as §1

[7] = tested on: Escherichia coli KCTC 1923; type: cell-based
Method: as §1

[8] = tested on: Micrococcus luteus ATCC 9341; type: cell-based
Method: as §1

[9] = tested on: Mycobacterium smegmatis ATCC 9341; type: cell-based
Method: as §1

[10] = tested on: Mycobacterium smegmatis ATCC 9341; type: cell-based; remark: listed apart in the source
Method: A filter paper disc (8 mm, Toyo Roshi Kaisha, Japan) saturated with antimicrobial sample (40 µL) was placed on the surface of petri dish (87 mm × 15 mm) containing Mueller Hinton Agar (MHA). The plate was incubated at 37 °C, and a clear zone of inhibition surrounding the paper disc was measured in millimeter (mm). […] The titer of the antimicrobial substance solution, in AU/mL, was calculated as (1000/d) D, where D was the dilution factor, and d was the dose, the amount of antimicrobial substance solution added to each spot. AU and the zone of inhibition were measured against Mycobacterium smegmatis ATCC 9341 while optimizing CBSYD1 media.

[11] = Method: (§2) The thermal stability of YD1 samples was determined by exposure to 20, 40, 60, 80 and 100 °C for 30 min and to 121 °C/105 kPa for 15 min before analyzing the residual activity. Similarly, pH stability was determined over a range of pH 2–10 using 1 M NaOH or HCl. The effect of protease enzyme on YD1 stability was determined at two different enzyme concentrations (1 and 2 mg/mL).
protease enzymes = details: enzymes at 1 and 2 mg/mL
Method: as §2

[12] = tested on: Escherichia coli KCTC1923 (E. coli), methicillin-resistant Staphylococcus aureus B15 (MRSA), and vancomycin-resistant enterococci (VRE); type: cell-based
Method: as §1

E. coli spheroplasts = type: cell-based, Escherichia coli; details: 2 h, 40 µg/mL
Method: Spheroplasts are gram-negative bacteria in which nearly all of the outer membrane (OM) has been removed. Lysozyme destroys the peptide bonds in peptidoglycan and weakens the cell wall. E. coli was grown in 10 mL of MHB, incubated overnight at 37 °C on a shaker at 180 rpm. Each culture (100 µL) was used to inoculate 20 mL of fresh media and incubated at 37 °C for 2 h at 180 rpm. Spheroplasts were prepared as described by Kikuchi et al. ([2015]).
Re-suspended spheroplasts and whole cells suspension were adjusted to OD 570 nm of 0.2 and 100 µL of each was added to a clear, flat-bottomed microtiter plate in duplicate wells. Ten microliters of YD1 in 10 mM Tris–HCl buffer (pH 7) was added to test wells for both preparations (spheroplasts and whole cells) at the indicated different final concentrations. To the control, 10 µL of 10 mM Tris–HCl buffer (pH 7) was added in lieu of YD1. The percentage of intact spheroplasts or whole cells was calculated as: =Sample OD at time X/Sample OD at time0×100
Decrease in the OD of the suspension after addition of a membrane-active agent indicates lysis of spheroplasts.

Substance Bacitracin [reference compound] has an MIC (MRSA B15) of 64 µg/mL, an MIC [1] of over 128 µg/mL and an MIC (VRE 5; VRE 5, method of Wiegand et al. 2008) of 64 µg/mL. It also gave an MIC (VRE 2; VRE 2, method of Wiegand et al. 2008) of 32 µg/mL, an MIC ([2]; Alcaligenes faecalis ATCC 1004, method of Wiegand et al. 2008) of over 128 µg/mL and an MIC (VRSA; VRSA, method of Wiegand et al. 2008) of over 128 µg/mL. It also gave an MIC ([3]; Salmonella Typhimurium KCTC 1925, method of Wiegand et al. 2008) of 64 µg/mL, an MIC ([4]; Bacillus subtilis ATCC 6633, method of Wiegand et al. 2008) of 64 µg/mL and an MIC ([5]; Pseudomonas aeruginosa KCTC 1637, method of Wiegand et al. 2008) of over 128 µg/mL. The MIC ([6]; Enterococcus faecalis ATCC 29212, method of Wiegand et al. 2008) was 2 µg/mL, the MIC ([7]; Escherichia coli KCTC 1923, method of Wiegand et al. 2008) was over 128 µg/mL and the MIC ([8]; Micrococcus luteus ATCC 9341, method of Wiegand et al. 2008) was 64 µg/mL. The MIC ([9]; Mycobacterium smegmatis ATCC 9341, method of Wiegand et al. 2008) was over 128 µg/mL.

For “APKGVQGPNG [YD1, Ala-Pro-Lys-Gly-Val-Gln-Gly-Pro-Asn-Gly]”, the “clear zone of inhibition” value [10] was “up to 16 mm”, the MIC (VRE 5) was 64 µg/mL and the MIC (VRE 2) was 64 µg/mL. The “thermal stability (activity)” value ([11]; at or above 100 °C (100 °C 30 min; 121 °C/105 kPa 15 min)) was “decreased sharply”, the “pH stability (residual activity)” value ([11]; pH 4–9, tested pH 2–10 with 1 M NaOH or HCl) was “completely stable” and the “thermal stability (residual activity)” value ([11]; up to 80 °C, 30 min exposure) was “completely stable”. For the same substance, the “effect of protease enzymes on antimicrobial activity” value (protease enzymes) was “failed to alter”, the MIC ([2]; ATCC 1004) was over 128 µg/mL and the MIC (VRSA) was over 128 µg/mL. The MIC ([3]; KCTC 1925) was 32 µg/mL, the MIC ([4]; ATCC 6633) was 64 µg/mL and the MIC ([5]; KCTC 1637) was 16 µg/mL. It also gave an MIC ([6]; ATCC 29212) of 64 µg/mL, an MIC ([7]; KCTC 1923) of 8 µg/mL and an MIC ([8]; ATCC 9341) of 64 µg/mL. For the same substance, the “MIC (range over E. coli KCTC1923, MRSA B15 and VRE)” value [12] was 8 to 64 µg/mL, the MIC ([9]; ATCC 9341) was 8 µg/mL and the intact surviving spheroplasts (E. coli spheroplasts) was over 88%.
